Data reported in patent publication US20140051744A1, “Markers For Assessing the Susceptibility of Cancer to Survivin-Targeting miRNA Treatment” (The Regents of the University of Colorado, A Body Corporate, priority 2012, published 2014).

Key:
[1] = tested on: miR-203 and miR-542-3p expression levels; test: qRT-PCR (TaqMan miRNA assays) of miRNA levels after mimic transfection; format: cell-based, human; conditions: SKBR3.B3.1 and SKBR3.B3.2 cells, 24 hrs, normalized to RNU6B, vs control mimic
Excerpt: (§1) FIGS. 1A-B. Transfection of the mimics of miR-203 and/or miR-542-3p dramatically increases their expression levels and specifically down-regulates Survivin, but not other functionally related molecules, such as Mcl-1 and Bcl-xL. SKBR3.B3.1 and […] cells were transfected with either control miRNA mimic, or miR-203 mimic, or miR-542-3p mimic alone, or the combination of miR-203 and miR-542-3p mimics for 24 hrs. (FIG. 1A) Cells were collected and subjected to total RNA extraction, inclusive of the small RNA fraction. The expression levels of miR-203 and miR-542-3p were measured by qRT-PCR using TaqMan miRNA assays. All results were normalized with the internal control RNU6B. Bars, SD. […] (FIG. 1B) Cells were collected and subjected to western blot analyses with specific antibodies directed against Survivin, Mcl-1, Bcl-xL, or β-actin. The densitometry analyses of Survivin signals were shown underneath, and the arbitrary numbers indicate the intensities of each cell line relative to controls, defined as 1.0.
Analysis of miRNA expression. […] The expression levels of miR-203 and miR-542-3p were then measured by quantitative real-time (qRT)-PCR using TaqMan MicroRNA Assays (Assay ID: 000507 and 001284, respectively; Applied Biosystems). […] The relative miRNA levels were calculated using the comparative Ct method (AACt) as reported (Howe et al., 2011). […]

[2] = tested on: Survivin; test: Western blot of Survivin protein after miRNA mimic transfection in erbB2+ breast cancer cells; format: cell-based, human; conditions: mimic transfection 24 hrs
Excerpt: as §1
MDA-MB-453 and BT474 cells (FIG. 2A), and BT474-HR20 cells (FIG. 2B) were transfected with either control miRNA mimic, or miR-203 mimic, or miR-542-3p mimic alone, or the combination of miR-203 and miR-542-3p mimics for 24 hrs. Cells were then collected and subjected to western blot analyses with specific antibodies directed against Survivin, Mcl-1, Bcl-xL, or β-actin. The densitometry analyses of Survivin signals were shown underneath, and the arbitrary numbers indicate the intensities of each cell line relative to controls, defined as 1.0.
(§2) Transfection of cells with miRNA mimic. Cell transfection with the miRIDIAN miRNA mimics or negative controls was carried out using HiPerFect Transfection Reagent (QIAGEN) according to the manufacturer's protocol.
(§3) Western blot analysis. Protein expression levels were determined by western blot analysis as described previously (Wang et al., 2010; Huang et al., 2009; Huang et al., 2011). Equal amounts of total cell lysates were boiled in Laemmli SDS-sample buffer, resolved by SDS-PAGE, transferred to nitrocellulose membrane (Bio-Rad Laboratories, Hercules, Calif.), and probed with the primary antibodies described in the figure legends. After the blots were incubated with horseradish peroxidase-labeled secondary antibody, the signals were detected using the enhanced chemiluminescence reagents (GE Healthcare Bio-Sciences Corp., Piscataway, N.J.).

[3] = tested on: Mcl-1; test: Western blot of Mcl-1 protein after miRNA mimic transfection; format: cell-based, human; conditions: SKBR3.B3.1 and SKBR3.B3.2 cells, mimic transfection 24 hrs
Excerpt: as §1, with “The densitometry analyses of Survivin signals were shown underneath, and the arbitrary numbers indicate the intensities of each cell line relative to controls, defined as 1.0.” left out
(§4) Western blot analysis. Protein expression levels were determined by western blot analysis as described previously (Wang et al., 2010; Huang et al., 2009; Huang et al., 2011). […] After the blots were incubated with horseradish peroxidase-labeled secondary antibody, the signals were detected using the enhanced chemiluminescence reagents (GE Healthcare Bio-Sciences Corp., Piscataway, N.J.).

[4] = tested on: Bcl-xL; test: Western blot of Bcl-xL protein after miRNA mimic transfection; format: cell-based, human; conditions: SKBR3.B3.1 and SKBR3.B3.2 cells, mimic transfection 24 hrs
Excerpt: as §1, with “The densitometry analyses of Survivin signals were shown underneath, and the arbitrary numbers indicate the intensities of each cell line relative to controls, defined as 1.0.” left out
as §4

[5] = tested on: PARP cleavage and caspase-3 activation; test: Western blot of PARP cleavage and cleaved caspase-3 after mimic transfection plus paclitaxel; format: cell-based, human; conditions: SKBR3.B3.1 and SKBR3.B3.2 cells, mimic 24 hrs then paclitaxel 24 hrs; for paclitaxel-induced PARP cleavage and caspase-3 activation (cleaved caspase-3): vs paclitaxel alone in control mimic transfection
Excerpt: (FIGS. 3A-B) SKBR3.B3.1 and SKBR3.B3.2 cells were transfected with either control miRNA mimic, or miR-203 mimic, or miR-542-3p mimic alone, or the combination of miR-203 and miR-542-3p mimics for 24 hrs. Cells were then untreated or treated with paclitaxel for another 24 hrs. Cells were collected and subjected to western blot analyses of PARP, cleaved caspase-3 (C-Caps-3), β-actin (FIG. 3A), or a specific apoptotic ELISA (FIG. 3B). C & D, BT474-HR20 cells were transfected with either control miRNA mimic, or miR-203 mimic, or miR-542-3p mimic alone, or the combination of miR-203 and miR-542-3p mimics for 24 hrs. Cells were then untreated or treated with paclitaxel for another 24 hrs. Cells were collected and subjected to western blot analyses of PARP, cleaved caspase-3 (C-Caps-3), or β-actin (FIG. 3C), or a specific apoptotic ELISA (FIG. 3D).
as §2, §3

[6] = tested on: Survivin; conditions: cells transfected with miR-542-3p mimics vs negative control-transfected cells; cited from earlier work
[7] = tested on: cancer cell proliferation; conditions: ectopic expression; through G1 and G2/M cell cycle arrest; cited from earlier work
[8] = tested on: 18rRNA; conditions: overexpression of miR-542-3p; cited from earlier work
[9] = tested on: Src-transformed fibroblasts and human cancer cells; conditions: ectopic expression in Src-transformed fibroblasts and human cancer cells; cited from earlier work
[10] = tested on: HCC cells; conditions: expression of miR-203 in HCC cells lacking their expression; cited from earlier work
[11] = MDA-MB-453, BT474 and BT474-HR20 cells
[12] = SKBR3.B3.1 and SKBR3.B3.2 cells, vs control mimic

Row | Substance | expression levels of miR-203 and/or miR-542-3p following mimic(s) transfection [1] | protein levels of Survivin [2, 11] | inhibition on Survivin compared with the other single mimic ([2]; SKBR3.B3.1 and SKBR3.B3.2 cells) | protein levels of Survivin [2, 12] | effect on MCl-1 protein [3] | effect on BCl-xL protein [4] | enhancement of paclitaxel-induced PARP cleavage and caspase-3 activation compared with the other single mimic [5] | paclitaxel-induced PARP cleavage and caspase-3 activation (cleaved caspase-3) [5] | gene down-regulation in microarray analysis [6] | cancer cell proliferation [7] | 18rRNA levels [8] | tumor growth [9] | cell growth [10]
1 | miR-542-3p: miRIDIAN miRNA specific mimic of miR-542-3p (sequence UGUGACAGAUUGAUAACUGAAA, MIMAT0003389), purchased from Thermo Scientific Dharmacon (commercial miRIDIAN mimic, chemistry not given here) | dramatically increased | able to down-regulate Survivin | more profound inhibition on Survivin than miR-203 | clearly reduced the protein levels of Survivin | no effect | no effect | more profound effects than miR-203 | clearly enhanced paclitaxel-induced PARP cleavage | most down-regulated candidate gene was Survivin | inhibited cancer cell proliferation | significantly decreased | suppresses tumor growth | –
2 | miR-203: miRIDIAN miRNA specific mimic of miR-203 (sequence GUGAAAUGUUUAGGACCACUAG, MIMAT0000264), purchased from Thermo Scientific Dharmacon (commercial miRIDIAN mimic, chemistry not given here) | dramatically increased | able to down-regulate Survivin | – | clearly reduced the protein levels of Survivin | no effect | no effect | – | clearly enhanced paclitaxel-induced PARP cleavage | – | – | – | – | inhibited cell growth
